In the supplement of paper PMC8882468:

What was measured:
Assay in all cases: CTG-3D luminescence at 96 h relative to day-0 seeding control (ratio to day 0); higher = more growth / less cytotoxicity; PDxO 3D drug screen, 96 h, CTG-3D normalised to day-0 seeding control.
[1] = system: MDA-MB-231
[2] = system: HCI-005.E2 (organoid from a breast cancer xenograft with a HER2-positive history)
[3] = system: HCI-016 (organoid from a triple-negative breast cancer xenograft)
[4] = system: HCI-008 (organoid from a HER2-enriched breast cancer xenograft)
[5] = system: HCI-017.E2 (organoid from an ER-positive breast cancer xenograft)
[6] = system: HCI-025 (organoid from a breast cancer xenograft)
[7] = system: HCI-019 (organoid from a triple-negative breast cancer xenograft)

Cc1cc(Nc2ncc(Cl)c(Nc3ccccc3S(=O)(=O)C(C)C)n2)c(OC(C)C)cc1C1CCNCC1 [ceritinib]
CTG-3D luminescence at 96 h
Conditions | 12.5 pM | 0.00025 µM | 0.005 µM | 0.1 µM | 1 µM | 10 µM | 100 µM | 625 fM
[1] | 4.39 | 4.39 | 4.6 | 4.48 | 4.36 | 0.0178 | -0.011 | 4.51
[2] | 1.54 | 1.76 | 1.79 | 1.7 | 1.44 | 0.347 | 0.0328 | 1.97
[5] | 1.94 | 2.16 | 2.23 | 2.22 | 1.988 | 0.0699 | -0.00443 | 2.22

CTG-3D luminescence at 96 h
Conditions | 12.5 pM | 0.00025 µM | 0.005 µM | 0.1 µM | 1 µM | 10 µM | 100 µM | 625 fM
[3], days in culture: 153 | 3.1 | 1.87 | 2.13 | 1.93 | 2.1 | 0.0113 | -0.00664 | 2.35
[3], days in culture: 172 | 2.65 | 2.04 | 1.89 | 1.31 | 1.46 | 0.00857 | -0.00483 | 2.1
[3], days in culture: 190 | 1.83 | 1.16 | 1.62 | 1.01 | 1.42 | 0.0979 | -0.0035 | 1.25
[3], days in culture: 199 | 1.55 | 1.22 | 1.18 | 1.49 | 1.36 | 0.0047 | -0.00558 | 1.96
[4], days in culture: 228 | 1.69 | 1.81 | 1.55 | 1.3 | 1.15 | -0.138 | -0.142 | 1.59
[4], days in culture: 244 | 1.42 | 1.74 | 1.85 | 1.55 | 1.47 | 0.0065 | -0.00443 | 2.17
[5], days in culture: 85 | 2.65 | 2.49 | 2.67 | 2.69 | 2.49 | 0.446 | -0.00537 | 2.49
[6], days in culture: 172 | 2.83 | 2.05 | 3.23 | 2.01 | 2.79 | 0.00721 | -0.00729 | 2.37
[6], days in culture: 209 | 1.92 | 1.29 | 1.23 | 1.33 | 1.33 | 0.628 | -0.00366 | 1.68
[6], days in culture: 218 | 2.02 | 1.87 | 1.86 | 1.8 | 1.36 | 1.48 | -0.00328 | 2.18
[7], days in culture: 110 | 1.94 | 1.72 | 1.21 | 2.24 | 1.78 | 0.533 | -0.00638 | 2.49
[7], days in culture: 131 | 2.4 | 3 | 2.64 | 3.8 | 2.36 | 0.0735 | -0.00829 | 3.86
[7], days in culture: 152 | 2.83 | 2.4 | 1.79 | 1.51 | 1.37 | 0.01 | -0.00373 | 2.52
